Values of other authors in paper PMC3349014 (Journal of the American Chemical Society, 2012).

Details: over 3 h

| Rat plasma levels after IV injection | Substance |
| --- | --- |
| drop to low percent over 3 h | Ac-Im-Py-Py-γ-Im-Py-Py-β-Dp [compound 1035] |
| drop to low percent over 3 h | Ac-Py-Py-β-Py-Im-Py-γ-Py-Py-Py-β-Im-Py-β-Dp [compound 1666] |
